Values joined by “and” are separate entries in the source; they are usually repeats but may differ in a detail not shown here. Equal entries are not always repeated.
What was measured:
[1] = biological target: T1, α2,6(N)-sialyltransferases ST6GALI (Homo sapiens, UniProt P15907); assay: Sialyltransferase inhibition assay, ST6GALI (reverse-phase HPLC); type: biochemical; conditions: for IC50: IC50 (μM) ST6GALI, α2,6-N-link
T1 construct: purchased RnDSystems.com (R&D Systems)
T1 sequence (P15907 1-406): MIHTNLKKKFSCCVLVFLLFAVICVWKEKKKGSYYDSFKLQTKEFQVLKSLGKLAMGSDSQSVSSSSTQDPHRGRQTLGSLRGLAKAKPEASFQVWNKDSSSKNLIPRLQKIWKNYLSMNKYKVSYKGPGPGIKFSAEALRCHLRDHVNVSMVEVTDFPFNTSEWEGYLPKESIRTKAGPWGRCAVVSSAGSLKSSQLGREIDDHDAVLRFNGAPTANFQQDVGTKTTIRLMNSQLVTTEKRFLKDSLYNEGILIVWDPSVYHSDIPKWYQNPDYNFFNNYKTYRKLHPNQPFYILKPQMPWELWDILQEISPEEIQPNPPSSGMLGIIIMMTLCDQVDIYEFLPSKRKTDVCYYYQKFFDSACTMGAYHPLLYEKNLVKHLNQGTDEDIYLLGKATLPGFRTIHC
Procedure: (§1) The enzymes analyzed in the present study included rat ST3Gal(I), rat ST3Gal(III), and human ST6Gal(I). Rat ST3Gal(I) and rat ST3Gal(Ill), were purchased from Calbiochem®, while human ST6Gal(I) was purchased from RnDSystems.com.
(§2) Sialyltransferase inhibition assay (α2,6-N-ST) was performed as follows: Sialyltransferase activity was determined by measuring the level of the end product of sialylated saccharides with reverse-phase HPLC. The assay mixtures contained the following components: 200 mM MES buffer; 100 mM NaCl; 0.5 mM EDTA; 0.01% Triton X-100; 1.4 mU ST6GALI; 25 μM Galβ1-4GlcNAc; 1 mM CMP-Neu5Ac and different concentration of Sialyltransferase inhibitors to a total volume of 50 μl. The assay mixture was incubated at 37° C. for 15 mins and then quenched by heating up to 101° C. for 10 mins. The sialylated product is resolved with reversed-phase HPLC. Kinetic data were obtained by fitting the initial rate data to the nonlinear regression equation.
(§3) Effects of the present compounds on the activity of sialyltransferase, including α2,3(N)-sialyltransferase ST3GALIII, α2,6(N)-sialyltransferases ST6GALI, and α2,3(O)-sialyltransferase ST3GALI, were determined in accordance with procedures described in the “Materials and Methods” section, and results are summarized in Table 1.

[2] = biological target: T2, α2,3(O)-sialyltransferase ST3GALI (Rattus norvegicus, UniProt Q6H8N0); assay: Sialyltransferase inhibition assay, ST3GALI (reverse-phase HPLC); type: biochemical; conditions: read-out: ST3GALI inhibition percentage; for inhibition at 500 µM: measured at 500 μM
T2 construct: purchased Calbiochem
T2 sequence (Q6H8N0 1-340): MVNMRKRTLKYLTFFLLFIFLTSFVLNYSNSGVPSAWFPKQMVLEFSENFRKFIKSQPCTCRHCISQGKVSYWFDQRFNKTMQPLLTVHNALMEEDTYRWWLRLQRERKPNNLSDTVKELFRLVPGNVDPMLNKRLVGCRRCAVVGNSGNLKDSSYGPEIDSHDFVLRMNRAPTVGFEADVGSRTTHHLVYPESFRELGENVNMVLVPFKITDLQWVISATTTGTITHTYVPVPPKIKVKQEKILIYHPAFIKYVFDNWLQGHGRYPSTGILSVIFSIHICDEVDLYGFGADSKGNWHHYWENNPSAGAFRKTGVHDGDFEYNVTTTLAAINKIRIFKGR
Procedure: as §1
as §2, with “mU ST3GALI; 2.5 mM T-antigen;” for “mU ST6GALI; 25 μM Galβ1-4GlcNAc;”, “to 101′C” for “to 101° C.”, “product was” for “product is”, “resolved by” for “resolved with”
as §3

[3] = biological target: T3, α2,3(N)-sialyltransferase ST3GALIII (Rattus norvegicus, UniProt Q02734); assay: Sialyltransferase activity assay, ST3GALIII; type: biochemical; conditions: IC50 (μM) ST3GALIII, α2,3-N-link
T3 construct: purchased Calbiochem
T3 sequence (Q02734 1-374): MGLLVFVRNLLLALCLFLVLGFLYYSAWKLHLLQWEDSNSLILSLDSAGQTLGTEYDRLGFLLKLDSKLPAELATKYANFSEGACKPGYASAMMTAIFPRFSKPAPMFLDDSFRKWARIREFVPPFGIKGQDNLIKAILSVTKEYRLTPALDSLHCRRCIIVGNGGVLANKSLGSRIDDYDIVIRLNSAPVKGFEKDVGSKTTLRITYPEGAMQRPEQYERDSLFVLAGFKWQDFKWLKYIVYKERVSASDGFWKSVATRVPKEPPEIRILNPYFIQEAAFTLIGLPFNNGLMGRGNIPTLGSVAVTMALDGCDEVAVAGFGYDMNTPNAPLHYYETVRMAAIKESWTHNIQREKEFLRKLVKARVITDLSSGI

SMILES: C[C@H](CCC(=O)OCCN=[N+]=[N-])C1CC[C@H]2[C@@H]3CC[C@@H]4C[C@H](OC(=O)[C@H](CC(=O)O)Nc5ccc([N+](=O)[O-])c6nonc56)CC[C@]4(C)[C@H]3CC[C@]12C (stereo partly drawn) [Compound 1, (3S)-4-(((3R,5R,8R,9S,10S,13R,14S)-17-((R)-5-(2-azidoethoxy)-5-oxopentan-2-yl)-10,13-dimethylhexadecahydro-1H-cyclopenta[a]phenanthren-3-yl)oxy)-3-((7-nitrobenzo[c][1,2,5]oxadiazol-4-yl)amino)-4-oxobutanoic acid]
- IC50 [1]: 4.2 µM and 4.33 µM
- inhibition at 500 µM [2]: 0%
- inhibition at 1000 µM ([2]; measured at 1 mM): 74%
- melting point: 78 to 79 °C
- IC50 [3]: 0.8 µM and 0.77 µM

SMILES: C[C@H](CCC(=O)OCCOCCN=[N+]=[N-])C1CC[C@H]2[C@@H]3CC[C@@H]4C[C@H](OC(=O)[C@H](CC(=O)O)NC(=O)c5ccc([N+](=O)[O-])cc5)CC[C@]4(C)[C@H]3CC[C@]12C (stereo partly drawn) [Compound 7, (3S)-4-(((3R,5R,8R,9S,10S,13R,14S)-17-((R)-5-(2-(2-azidoethoxy)ethoxy)-5-oxopentan-2-yl)-10,13-dimethylhexadecahydro-1H-cyclopenta[a]phenanthren-3-yl)oxy)-3-(4-nitrobenzamido)-4-oxobutanoic acid]
- selectivity ratio ST3GALI/ST6GALI [1]: >74
- IC50 [1]: 6.72 ± 0.3 µM
- inhibition at 500 µM [2]: 0%
- melting point: 57 to 58 °C

SMILES: C[C@H](CCC(=O)OCCOCCOCCN=[N+]=[N-])C1CC[C@H]2[C@@H]3CC[C@@H]4C[C@H](OC(=O)[C@H](CC(=O)O)NC(=O)c5ccc([N+](=O)[O-])cc5)CC[C@]4(C)[C@H]3CC[C@]12C (stereo partly drawn) [Compound 8, (3S)-4-(((3R,5R,8R,9S,10S,13R,14S)-17-((R)-5-(2-(2-(2-azidoethoxy)ethoxy)ethoxy)-5-oxopentan-2-yl)-10,13-dimethylhexadecahydro-1H-cyclopenta[a]phenanthren-3-yl)oxy)-3-(4-nitrobenzamido)-4-oxobutanoic acid]
- selectivity ratio ST3GALI/ST6GALI [1]: >94
- IC50 [1]: 5.35 ± 0.46 µM
- inhibition at 500 µM [2]: 0%
- melting point: 52 to 53 °C

SMILES: COc1ccc2c(CC(=O)N[C@@H](CC(=O)O)C(=O)O[C@@H]3CC[C@@]4(C)[C@H](CC[C@@H]5[C@@H]4CC[C@]4(C)C([C@H](C)CCC(=O)OCCN=[N+]=[N-])CC[C@@H]54)C3)cc(=O)oc2c1 (stereo partly drawn) [Compound 11, (3S)-4-(((3R,5R,8R,9S,10 S,13R,14S)-17-((R)-5-(2-azidoethoxy)-5-oxopentan-2-yl)-10,13-dimethylhexadecahydro-1H-cyclopenta[a]phenanthren-3-yl)oxy)-3-(2-(7-methoxy-2-oxo-2H-chromen-4-yl)acetamido)-4-oxobutanoic acid]
- selectivity ratio ST3GALI/ST6GALI [1]: >89
- IC50 [1]: 5.59 ± 0.24 µM
- inhibition at 500 µM [2]: 0%
- melting point: 151 to 152 °C

SMILES: COc1ccc2c(CC(=O)N[C@@H](CC(=O)O)C(=O)O[C@@H]3CC[C@@]4(C)[C@H](CC[C@@H]5[C@@H]4CC[C@]4(C)C([C@H](C)CCC(=O)OCCOCCN=[N+]=[N-])CC[C@@H]54)C3)cc(=O)oc2c1 (stereo partly drawn) [Compound 12, (3S)-4-(((3R,5R,8R,9S,10S,13R,14S)-17-((R)-5-(2-(2-azidoethoxy)ethoxy)-5-oxopentan-2-yl)-10,13-dimethylhexadecahydro-1H-cyclopenta[a]phenanthren-3-yl)oxy)-3-(2-(7-methoxy-2-oxo-2H-chromen-4-yl)acetamido)-4-oxobutanoic acid]
- selectivity ratio ST3GALI/ST6GALI [1]: >97
- IC50 [1]: 5.14 ± 0.11 µM
- inhibition at 500 µM [2]: 0%
- melting point: 142 to 143 °C

SMILES: COc1ccc2c(CC(=O)N[C@@H](CC(=O)O)C(=O)O[C@@H]3CC[C@@]4(C)[C@H](CC[C@@H]5[C@@H]4CC[C@]4(C)C([C@H](C)CCC(=O)OCCOCCOCCN=[N+]=[N-])CC[C@@H]54)C3)cc(=O)oc2c1 (stereo partly drawn) [Compound 13, (3S)-4-(((3R,5R,8R,9S,10S,10S,3R,14S)-17-((R)-5-(2-(2-(2-azidoethoxy)ethoxy)ethoxy)-5-oxopentan-2-yl)-10,13-dimethylhexadecahydro-1H-cyclopenta[a]phenanthren-3-yl)oxy)-3-(2-(7-methoxy-2-oxo-2H-chromen-4-yl)acetamido)-4-oxo butanoic acid]
- selectivity ratio ST3GALI/ST6GALI [1]: >109
- IC50 [1]: 4.61 ± 0.35 µM
- inhibition at 500 µM [2]: 0%
- melting point: 134 to 135 °C

SMILES: COc1ccc2c(CC(=O)N[C@@H](CC(=O)O)C(=O)O[C@@H]3CC[C@@]4(C)[C@H](CC[C@@H]5[C@@H]4CC[C@]4(C)C([C@H](C)CCC(=O)OCCOCCOCCOCCN=[N+]=[N-])CC[C@@H]54)C3)cc(=O)oc2c1 (stereo partly drawn) [Compound 14, (3S)-4-(((3R,5R,8R,9S,10S,13R,14S)-17-((R)-1-azido-13-oxo-3,6,9,12-tetraoxaheptadecan-16-yl)-10,13-dimethylhexadecahydro-1H-cyclopenta[a]phenanthren-3-yl)oxy)-3-(2-(7-methoxy-2-oxo-2H-chromen-4-yl)acetamido)-4-oxobutanoic acid]
- selectivity ratio ST3GALI/ST6GALI [1]: >101
- IC50 [1]: 4.95 ± 0.37 µM
- inhibition at 500 µM [2]: 0%
- melting point: 126 to 127 °C

SMILES: COc1ccc2c(CC(=O)N[C@@H](CC(=O)O)C(=O)O[C@@H]3CC[C@@]4(C)[C@H](CC[C@@H]5[C@@H]4CC[C@]4(C)C([C@H](C)CCC(=O)OCCOCCOCCOCCOCCN=[N+]=[N-])CC[C@@H]54)C3)cc(=O)oc2c1 (stereo partly drawn) [Compound 15, (3S)-4-(((3R,5R,8R,9S,10S,13R,14S)-17-((R)-1-azido-16-oxo-3,6,9,12,15-pentaoxaicosan-19-yl)-10,13-dimethylhexadecahydro-1H-cyclopenta[a]phenanthren-3-yl)oxy)-3-(2-(7-methoxy-2-oxo-2H-chromen-4-yl)acetamido)-4-oxobutanoic acid]
- selectivity ratio ST3GALI/ST6GALI [1]: >88
- IC50 [1]: 5.69 ± 0.4 µM
- inhibition at 500 µM [2]: 0%
- melting point: 113 to 114 °C
